The source of these data is patent publication US10329231B2, “Epoxy compound, method for producing the same, epoxy resin composition, and cured product thereof” (DIC Corporation, priority 2012, dated 2019).

What all share (type): physicochemical
Series [1] in a line: Softening point, ball & ring (B & R) method, JIS K7234. To be noted: glycerin heating medium. An excerpt:
2) Method for measuring softening point: measured by a ball & ring (B & R) method using glycerin as a heating medium according to JIS K7234.
Apparatus name: ASP-M2 model manufactured by Meitec Corporation

The nature of series [2]: Melt viscosity at 150° C., ASTM D4287 (ICI viscometer method). Details: Melt viscosity at 150° C. of epoxy resin: unit not given here. As to conditions: for Melt viscosity at 150° C. of epoxy resin: Table 1. The protocol:
1) Melt viscosity at 150° C.: measured with an apparatus below according to ASTM D4287.
Apparatus name: MODEL CV-1S manufactured by Codex Corporation

The nature of series [3]: Solubility in hexane during purification. To be noted: reflux then room temperature. The protocol:
Oxidative coupling reaction and solvent extraction were performed under the same conditions as in Example 1. Ethyl acetate was distilled off under vacuum, and then hexane was added to the resultant crude product. The mixture was transferred to a SUS container provided with a thermometer, a stirrer, and Dean-Stark trap, and hexane was further added so that the total amount was 5 L, followed by reflux. The hexane solution was cooled to room temperature, and then insoluble substances were filtered off. The solvent of the filtrate was distilled off under vacuum, and the residue was dried at 110° C. for 5 hours to produce 2 g (yield 3%) of a solid containing [1,1′-binaphthalene]-2,2′,7,7′-tetraol as a main component.

Take `c1cc2ccc(OCC3CO3)c(Cc3c(OCC4CO4)ccc4ccc(OCC5CO5)cc34)c2cc1OCC1CO1` (stereo not shown) [Example A-2, reference compound]: in series [1], the “Softening point of epoxy resin” value was found to be 91 °C. Further, the “Melt viscosity at 150° C. of epoxy resin” value in series [2] (150° C.) was 4.5. Also, the “150° C. melt viscosity” value in series [2] (150° C., data given with the product description) was 4.5 ps.

Regarding `c1cc2ccc(OCC3CO3)c(-c3c(OCC4CO4)ccc4ccc(OCC5CO5)cc34)c2cc1OCC1CO1` (stereo not shown) [Example A-1, 2,2′,7,7′-tetraglycidyloxy-[1,1′-binaphthalene]], the “Softening point of epoxy resin” value in series [1] turned out to be 61 °C. Besides, in series [2] (150° C.), the “Melt viscosity at 150° C. of epoxy resin” value worked out at 1.1. Besides, the melt viscosity in series [2] (ICI viscometer method, measurement temperature 150° C.) was 1.1 dPa·s.

In the case of `Oc1ccc2ccc(O)c(-c3c(O)ccc4ccc(O)cc34)c2c1` [1,1′-Binaphthalene]-2,2′,7,7′-tetraol, [1,1′-binaphthalene]-2,2′,7,7′-tetraol], the solubility in hexane entry in series [3] is reported as “low solubility”.
